A short description of series [1]: Cytotoxicity in HepG 2.2.15 cells (cell morphology under microscope after 8 days, Reed & Muench). It counts as cell-based. Particulars: human, pathological changes after 8 days, read-out: TC50 (half-maximum toxic concentration). On the procedure:
(§1) The antiviral tests were carried out in 96-well microtiter plates. Only growth medium and HepG 2.2.15 cells were added to the first vertical row of the plate as a blank control.
Stock solutions of the test compounds (50 mM) were first dissolved in DMSO, and further dilutions were prepared in the growth medium of HepG 2.2.15 cell. The compounds according to the present invention, usually in a test concentration of 100 μg/ml (1st test concentration), were pipetted into each well of the second vertical test row of the microtiter plate and subsequently diluted with growth medium plus 2% of foetal calf serum (volume 25 μl) by 2 fold each time, up to 2^10-fold. […]
Substances-induced cytotoxic or cytostatic changes in HepG 2.2.15 cells were determined as changes in the cell morphology, for example under an optical microscope. […] The average degree of the pathological change and percent inhibition at each concentration were calculated, and a half-maximum toxic concentration (TC50) and a maximum non-toxic concentration TC0 were determined according to Reed & Muench methods. […]
The cytotoxicity and antiviral activity of the compounds according to the present invention were determined by the methods as described above, and the results were shown in Table 1.

The next series concerns HBV DNA. Nature of the series: Antiviral activity: inhibition of HBV DNA in supernatant of HepG 2.2.15 cells (dot blot hybridization). It counts as cell-based, hepatitis B virus (HBV). Particulars: for IC50: Hepatitis B virus, HepG2.2.15, 192 h, HepG 2.2.15 cells, 8 days incubation, hepatitis B-specific band reduced by 50% vs untreated sample, read-out: IC50 (half-maximum inhibitory concentration, HBV DNA); for SI: selectivity index, from TC50 and IC50 in HepG 2.2.15 cells. On the procedure: The antiviral activity of the compounds according to the present invention was determined by the methods described by Sells et al. (M. A. Sells, M. L. Chen, g. Acs, Proc. Natl. Acad. Sci., 1987, 84, 1005-1009) and Korba et al., (B. E. Korba, J. L. Gerin, Antiviral Research, 1992, 19. 55-70).
as §1
Stock solutions of the test compounds (50 mM) were first dissolved in DMSO, and further dilutions were prepared in the growth medium of HepG 2.2.15 cell. The compounds according to the present invention, usually in a test concentration of 100 μg/ml (1st test concentration), were pipetted into each well of the second vertical test row of the microtiter plate and subsequently diluted with growth medium plus 2% of foetal calf serum (volume 25 μl) by 2 fold each time, up to 2^10-fold.
225 μl of a HepG 2.2.15 cell suspension (5×10^4 cells/ml) in growth medium plus 2% foetal calf serum were then added to each well of the 96-well microtiter plate.
The test mixture was incubated at 37° C., 5% CO2 for 4 days. The supernatant was subsequently siphoned off and discarded, and 225 μl of freshly prepared growth medium were added to each well. The compounds according to the present invention were added again in a volume 25 μl. The mixture were incubated from another 4 days.
The supernatants were subsequently harvested and siphoned in vacuum onto 96-well dot blot chambers covered with a nylon membrane (in accordance with the instructions of the manufacturer). […]
The viral DNA of the treated HepG 2.2.15 cells on the nylon filter membrane was usually determined using non-radioactive digoxigenin-labelled hepatitis B-specific DNA probes which were in each case labelled with digoxigenin, purified and used for hybridization in accordance with the instructions of the manufacturer.
Briefly speaking, the prehybridization and hybridization were carried out in 5×SSC, 1× blocking agent, 0.1% N-lauroylsacosine, 0.02% SDS and 100 μg of DNA from herring sperm. […] The filler membrane was subsequently washed and the antibodies against digoxigenin of HBV DNA were determined.
The digoxigenin-labeled DNA was detected immunologically in accordance with the instructions of the manufacturer.
Briefly speaking, the filler membrane were washed and prehybridized with a blocking agent (in accordance with the instructions of the manufacturer). […] The chemiluminescent signals of the Hepatitis B-specific DNA were measured by exposing of the filters to an X-ray film (incubation for 10 minutes to 2 hours depending on the signal strength) to determine the half-maximum inhibitory concentration (IC50). […]

The structures appear in SMILES notation.

As for `COC(=O)C1=C(C)NC(c2cccs2)=NC1c1ccccc1` (stereo not drawn) [Example 4, methyl 2-(thien-2-yl)-4-phenyl-6-methyl-1,4-dihyropyrimidin-5-carboxylate], in series [1], the CC50 at 8 days is 105 µM. In the series with HBV DNA, the IC50 amounted to 29.6 µM and the SI amounted to 3.56.
For `COC(=O)C1=C(C)NC(c2cccs2)=NC1c1ccc(F)cc1Cl` (stereo not drawn) [Example 1, methyl 2-(thien-2-yl)-4-(2-chloro-4-fluorophenyl)-6-methyl-1,4-dihyropyrimidin-5-carboxylate], in that order: 1100 µM, 0.007 µM and >10^5.
